These results are taken from paper PMC11643720, “Addressing the Evolution of Cardenolide Formation in Iridoid-Synthesizing Plants: Site-Directed Mutagenesis of PRISEs (Progesterone-5β-Reductase/Iridoid Synthase-like Enzymes) of Plantago Species” (Molecules, 2024).

Where two headings read alike, the source gives them in different places.

For experiment [1], the system named is T1, rPlP5βR1 (PlP5βR1, PlP5βR).
T1 construct: gene P5βR1; full-length CDS 1170 bp, 389 aa; pDEST17, N-terminal 6xHis tag, E. coli SoluBL21 (mutants BL21(DE3)), Ni-NTA; printed WKF numbers of the two species may be swapped; wild type has L156 and L346 (abstract misprints A156, F346)
As to the kind of experiment: NADPH oxidation at […] nm, Michaelis-Menten. It counts as biochemical, Plantago lanceolata. To be noted: 0.2 mM NADPH, phosphate buffer pH 8.0, 40 °C; SD < 25%.

The test system of experiment [2] is T2, rPmdP5βR1 (PmdP5βR1, PmdP5βR).
T2 construct: gene P5βR1; full-length CDS 1170 bp, 389 aa; pDEST17, N-terminal 6xHis tag, E. coli SoluBL21 (mutants BL21(DE3)), Ni-NTA; printed WKF numbers of the two species may be swapped; wild type has F156 and A346
Briefly: NADPH oxidation at […] nm, Michaelis-Menten. To be noted: 0.2 mM NADPH, phosphate buffer pH 8.0, 40 °C, SD < 25%. The class given is biochemical, Plantago media.

The test system of experiment [3] is T1, rPlP5βR1 (PlP5βR1, PlP5βR). Briefly: NADPH oxidation at […] nm, Michaelis-Menten. The settings on record: 0.2 mM NADPH, phosphate buffer pH 8.0, 40 °C, SD < 25%, read-out: rPlP5βR1 / L156F. The class given is biochemical, Plantago lanceolata.
In experiment [4] the test system is T2, rPmdP5βR1 (PmdP5βR1, PmdP5βR). As to the kind of experiment: NADPH oxidation at […] nm, Michaelis-Menten. The class given is biochemical, Plantago media. To be noted: 0.2 mM NADPH, phosphate buffer pH 8.0, 40 °C, SD < 25%, read-out: rPmdP5βR1 / DMT.
Experiment [5] has as its system T1, rPlP5βR1 (PlP5βR1, PlP5βR). Briefly: NADPH oxidation at […] nm, Michaelis-Menten. To be noted: 0.2 mM NADPH, phosphate buffer pH 8.0, 40 °C, SD < 25%, read-out: rPlP5βR1 / DMT. It counts as biochemical, Plantago lanceolata.
Experiment [6] deals with T3, rPmdP5βR1 (PmdP5βR1, PmdP5βR).
T3 construct: gene P5βR1
The settings on record: read-out: rPmdP5βR1 / A346L; 0.2 mM NADPH, phosphate buffer pH 8.0, 40 °C, DMSO added at 0.4-0.6 mM progesterone; SD < 25%.

The test system of experiment [7] is T4, rPlP5βR1 (PlP5βR1, PlP5βR).
T4 construct: gene P5βR1
The settings on record: read-out: rPlP5βR1 / L346A; 0.2 mM NADPH, phosphate buffer pH 8.0, 40 °C, DMSO added at 0.4-0.6 mM progesterone; SD < 25%.

Experiment [8] relates to T3, rPmdP5βR1 (PmdP5βR1, PmdP5βR). The settings on record: read-out: rPmdP5βR1 / F156L; 0.2 mM NADPH, phosphate buffer pH 8.0, 40 °C, DMSO added at 0.4-0.6 mM progesterone; SD < 25%.
Setting [9] is: DMSO added at 0.4-0.6 mM progesterone.

Regarding `O=C1C=CCCC1` [2-cyclohexen-1-one], the Km stood at 66 µM in experiment [1], 46 µM in experiment [2] and 16 µM in experiment [3].

For `C/C(C=O)=C\CC/C(C)=C/C=O` [8-oxogeranial], the Km worked out at 7 µM in experiment [4], 10 µM in experiment [5], 100 µM in experiment [1] and 19 µM in experiment [2].

Take `C=CC(C)=O` [methyl vinyl ketone]: the results for the Km in experiment [5], in experiment [1] and in experiment [2] were 216 µM, 100 µM and 33 µM, respectively.

Consider `CC(=O)[C@H]1CC[C@H]2[C@@H]3CCC4=CC(=O)CC[C@]4(C)[C@H]3CC[C@]12C` [progesterone], for which the Km in experiment [4] (setting [9]) was 587 µM; in experiment [6], 218 µM; in experiment [7], 170 µM; in experiment [5] (setting [9]) it was 44 µM; in experiment [8] it was 128 µM; in experiment [2] (setting [9]), 67 µM. Moreover, in experiment [3] (setting [9]), the Km came to 451 µM.
